Reference: patent US12728121B2, “Compositions and methods for treating idiopathic pulmonary fibrosis” (Seyltx, Inc., priority 2019, dated 2026)

Key:
Format in all cases: in vivo, Mouse/C57BL/6
BLM-induced fibrosis [1] = experiment: Bleomycin (BLM)-induced lung fibrosis in mice: mortality rate over 21 days; settings: doses as Table 1; for Fatality Number: deaths/mice per group over 21 days, Vehicle 2/10; for Percent Fatality: over 21 days, Vehicle 20%
Experimental: (§1) The mouse species or strain was Mouse/C57BL/6, the mice being 8-10 week old males. Nine groups of 10 mice each were obtained from Charles River Laboratories. Each group was randomized based on body weight. Bleomycin (BLM) was obtained from Euroasias.
(§2) The mice were anesthetized with isoflurane/O2 mixture. Bleomycin (BLM) was then administered to the mice intratracheally (PennCentury)—single bolus, at 2.5 U/kg body weight in 50 μl sterile saline.
(§3) Seven days after the bleomycin is administered, and fibroblasts have generally proliferated, six of the nine groups of IT bleomycin challenged mice were be dosed orally (p.o.) once a day with Bromantane, Ifenoprodil, Radiprodil, Bemithyl, Dexamethasone, or Repirinast at specified amounts per kg of body weight (mg/kg) daily for 14 consecutive days. The amounts are set out in Table 1 below. The vehicle used was 0.5% carboxymethyl cellulose (CMC). Prifenidone was also prepared in 0.5% CMC and administrated orally once a day to one of the nine IT bleomycin challenged mice groups beginning for 14 consecutive days. Vehicle and no-BLM control groups received 0.5% CMC orally for 14 consecutive days.
Mortality Rate: the mortality rate in each group was also observed over 21 days.

[2] = Bleomycin (BLM)-induced lung fibrosis in mice: body weight over 21 days; settings: for Percent Change in Body Weight / Body Weight: doses as Table 1; for Body Weight: group mean; for changes in body weight as compared to the BLM-vehicle group (in words): doses as Table 1, p.o. once daily
Experimental: as §1, §2, §3
Body Weight: The body weights were measured over 21 days using a laboratory balance.

BLM-induced fibrosis [3] = experiment: Bleomycin (BLM)-induced lung fibrosis in mice: Gomori's Trichrome score of lung sections; settings: for Trichrome score (average) / % reduction in fibrosis: day 21; for Trichrome score (average): BLM 2.5 U/kg intratracheal, p.o. once daily 14 days from day 7, mg/kg: Pirfenidone 300, Bromantane 20, Ifenoprodil 30, Radiprodil 30, Bemithyl 200, Dexamethasone 0.25, Repirinast 90, Normal 1.00, Vehicle 4.59; for % reduction in fibrosis: from Trichrome scores relative to vehicle and normal groups, doses as Table 1, p.o. once daily 14 days
Experimental: as §1, §2, §3
On day 21 of the study, 4 hours after the last dose, the mice were sacrificed and plasma was collected and frozen for cytokine analysis (testing for IL-6, IL-12, TGFβ, IL-13 proteins, or fibrosis markers). Bronchoalveolar lavage fluid (BALF) was collected and frozen for optional cytokine analyses and cell counts pending the initial data. The lungs were then excised, weighed and fixed in formalin. Gomori's Trichrome stain, a histological stain, was used to determine collagen content.
Trichrome Score: A trichrome score measures the level of scarring to the lungs caused by the disease. The greater the trichrome score, the greater the scarring.
Formalin fixed lung samples were submitted to affiliated histopathology laboratory for histopathological analysis subjected Gomori's Trichrome stain, a histological stain, which was used to determine collagen content.
Each lung was divided into ten sections. All ten sections were stained and evaluated. A board certified veterinarian pathologist assessed the presence of lung fibrosis and severity score—The expression of collagen (associated with fibrosis) is determined from the ratio of the stained area versus the total area of the lung section.

[4] = doses as Table 1, order: Dexamethasone and Repirinast, followed by Ifenprodil and Radiprodil

Row | Structure (SMILES) | Fatality Number (BLM-induced fibrosis [1]) | Percent Fatality (BLM-induced fibrosis [1]) [%] | Percent Change in Body Weight ([2]; 7-Nov) [%] | Body Weight ([2]; 7-Nov) [g] | Percent Change in Body Weight ([2]; 8-Nov) [%] | Body Weight ([2]; 8-Nov) [g] | Percent Change in Body Weight ([2]; 9-Nov) [%] | Body Weight ([2]; 9-Nov) [g] | Percent Change in Body Weight ([2]; 12-Nov) [%] | Body Weight ([2]; 12-Nov) [g] | Percent Change in Body Weight ([2]; 14-Nov) [%] | Body Weight ([2]; 14-Nov) [g] | Percent Change in Body Weight ([2]; 16-Nov) [%] | Body Weight ([2]; 16-Nov) [g] | Percent Change in Body Weight ([2]; 20-Nov) [%] | Body Weight ([2]; 20-Nov) [g] | Percent Change in Body Weight ([2]; 22-Nov) [%] | Body Weight ([2]; 22-Nov) [g] | Percent Change in Body Weight ([2]; 26-Nov) [%] | Body Weight ([2]; 26-Nov) [g] | also measured
1 | C[C@@H]([C@H](O)c1ccc(O)cc1)N1CCC(Cc2ccccc2)CC1 (stereo in doubt) [Ifenoprodil, 4-[2-(4-benzylpiperidin-1-ium-1-yl)-1-hydroxypropyl] phenol; 2,3,4-trihydroxy-4-oxobutanoate] | 0/10 | 0 | 0.0 | 24.4 | −0.1 | 24.3 | −0.3 | 24.1 | −2.0 | 22.4 | −1.3 | 23.1 | −0.8 | 23.6 | −0.3 | 24.1 | 0.5 | 24.9 | 0.2 | 24.6 | percent survival (in words) (BLM-induced fibrosis [1]; order: Dexamethasone and Repirinast, followed by Ifenprodil and Radiprodil): higher; Percent Change in Body Weight ([2]; 28-Nov): 0.7%; Body Weight ([2]; 28-Nov): 25.1 g; changes in body weight as compared to the BLM-vehicle group (in words) [2]: showed improvement beginning on Day 5; Trichrome score (average) (BLM-induced fibrosis [3]): 3.37; Trichrome score response versus BLM-vehicle group (in words) (BLM-induced fibrosis [3]; [4]): response was better; percent reduction in lung fibrosis in comparison to the BLM-vehicle group (in words) (BLM-induced fibrosis [3]; [4]): higher; % reduction in fibrosis (BLM-induced fibrosis [3]): 34.0%; improvement in lung fibrosis, loss of body weight, Trichrome score and mortality as compared to BLM-vehicle (conclusion, in words) (BLM-induced fibrosis [3]; oral administration, Dexamethasone 0.25, Repirinast 90, Ifenprodil 30, Radiprodil 30 mg/kg): showed improvement
2 | CCSc1nc2ccccc2[nH]1 [Bemithyl, 2-Ethylsulfanyl-1H-benzoimidazole] | 1/10 | 10 | 0.0 | 24.6 | 0.0 | 24.7 | −0.6 | 24.1 | −1.6 | 23.0 | −1.1 | 23.5 | −1.7 | 22.9 | −1.6 | 23.1 | −0.6 | 24.0 | −0.9 | 23.7 | Percent Change in Body Weight ([2]; 28-Nov): −0.3%; Body Weight ([2]; 28-Nov): 24.3 g; changes in body weight as compared to the BLM-vehicle group (in words) [2]: showed improvement beginning on Day 5; Trichrome score (average) (BLM-induced fibrosis [3]): 4.14; % reduction in fibrosis (BLM-induced fibrosis [3]): 12.5%
3 | Brc1ccc(NC2C3CC4CC(C3)CC2C4)cc1 (stereo not shown) [Bromantane, N-(4-bromophenyl)adamantan-2-amine] | 3/10 | 30 | 0.0 | 24.8 | −0.1 | 24.7 | −0.8 | 24.0 | −1.8 | 23.1 | −1.1 | 23.7 | −1.5 | 23.3 | −1.9 | 22.9 | −1.6 | 23.2 | −1.0 | 23.8 | Percent Change in Body Weight ([2]; 28-Nov): 0.4%; Body Weight ([2]; 28-Nov): 25.2 g; changes in body weight as compared to the BLM-vehicle group (in words) [2]: showed improvement beginning Day 5, with the exception of Day 15; Trichrome score (average) (BLM-induced fibrosis [3]): 4.00; % reduction in fibrosis (BLM-induced fibrosis [3]): 16.4%
